Experiment: Bioavailability of amisulpride administered by the oral route
Conditions: in vivo, conventional amisulpride, of the order of

- bioavailability: 35 to 45%
Compound: CCN1CCCC1CNC(=O)c1cc(S(=O)(=O)CC)c(N)cc1OC (stereo not shown) [amisulpride, 4-amino-N-[(1-ethylpyrrolidin-2-yl)methyl]-5-(ethylsulphonyl)-2-methoxybenzamide]
